Test results: USRE37781E1, “Substituted cyclic carbonyls and derivatives thereof useful as retroviral protease inhibitors” (DuPont Pharmaceuticals Company, priority 1991, dated 2002)
≈ marks a conversion by molar mass, not a printed value. Where a name gives a salt, the structure may show the parent alone. Read-outs that look alike come from different tables or passages of the source.

Key:
HIV-1 (RF) in MT-2 cells = experiment: microbe, parasite or virus in culture; format: cell-based
Summary of the method: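 Read-out: gag and pol viral RNA captured by 5′-biotinylated oligonucleotides on streptavidin-coated wells, detected with alkaline phosphatase-linked reporter oligonucleotides, calibrated against BH10 in vitro transcripts. Virus stocks (RF, MN, IIIB) come from H9 cultures; MT-2 host cells kept in RPMI 1640, 5% FCS.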

[1] = target: single-chain tethered dimer of HIV protease (Human immunodeficiency virus 1, UniProt P04585); experiment: biochemical; format: biochemical; parameters: fused on or other part: A second copy of the same protease unit is joined to the first by a short peptide tether, giving one polypeptide
[2] = Human immunodeficiency virus 1, MT2, 48 h, Table 2d, class symbols, read-out: IC90
[3] = read-out: HPLC K1, Table 2d, class symbols
[4] = Human immunodeficiency virus 1, MT2, HIV RNA assay, HIV-1 infected MT-2 cells, class symbols, read-out: IC90

Row | SMILES | melting point | IC90 (HIV-1 (RF) in MT-2 cells; [2]) | Ki [1, 3] | other results
1 | N#CN=C1N(Cc2cccc([N+](=O)[O-])c2)[C@H](Cc2ccccc2)[C@H](O)[C@@H](O)[C@@H](Cc2ccccc2)N1Cc1cccc([N+](=O)[O-])c1 | 114 °C | – | – | –
2 | Nc1cccc(CN2C(=O)N(CC3CC3)C(Cc3ccccc3)C(O)C(O)C2Cc2ccccc2)c1 (centres unmarked) (as salt: HCl) [15G] | 108.9 °C | – | – | –
3 | CNc1cccc(CN2C(=O)N(Cc3ccc(CO)cc3)C(Cc3ccccc3)C(O)C(O)C2Cc2ccccc2)c1 (centres unmarked) (as salt: HCl) [15M] | 107.6 °C | – | – | –
4 | NCC(=O)Nc1cccc(CN2C(=O)N(Cc3cccc(NC(=O)CN)c3)C(Cc3ccccc3)C(O)C(O)C2Cc2ccccc2)c1 (centres unmarked) (as salt: HCl) [15R] | 233.7 °C | – | – | –
5 | O=C1N(Cc2cccc(-c3cc[nH]n3)c2)C(Cc2ccccc2)C(O)C(O)C(Cc2ccccc2)N1Cc1cccc(-c2cc[nH]n2)c1 (centres unmarked) (as salt: HCl) [Example 15YM] | 195 to 197 °C | – | – | –
6 | O=C1N(Cc2cccc(-c3ncc[nH]3)c2)C(Cc2ccccc2)C(O)C(O)C(Cc2ccccc2)N1Cc1cccc(-c2ncc[nH]2)c1 (centres unmarked) (as salt: hydrochloride) [Example 15BS] | 191 to 194 °C | – | – | –
7 | O=C1N(Cc2cccc(OCCO)c2)C(Cc2ccccc2)C(O)C(O)C(Cc2ccccc2)N1Cc1cccc(OCCO)c1 (centres unmarked) (hydrate or solvate) [10Y] | 245 to 247 °C | – | – | –
8 | O=C1N(Cc2cccc(OCc3ccccc3)c2)C(Cc2ccccc2)C(O)C(O)C(Cc2ccccc2)N1Cc1cccc([N+](=O)[O-])c1 (centres unmarked) (hydrate or solvate) [11P] | 173 to 176 °C | – | – | –
9 | O=C1N(Cc2cccc(-c3nnn[nH]3)c2)C(Cc2ccccc2)C(O)C(O)C(Cc2ccccc2)N1Cc1cccc(-c2nnn[nH]2)c1 (centres unmarked) [9T] | 159.4 °C | > 100 µg/mL | < 10 nM | –
10 | O=C1N(Cc2cccc(-c3nnn[nH]3)c2)C(Cc2ccccc2)C(O)C(O)C(Cc2ccccc2)N1CC1CC1 (centres unmarked) [9U] | 171.6 °C | < 10 µg/mL | < 10 nM | –
11 | N#Cc1cccc(CN2C(=O)N(Cc3cccc(C=O)c3)C(Cc3ccccc3)C(O)C(O)C2Cc2ccccc2)c1 (centres unmarked) [10C] | 189 to 191 °C | < 10 µg/mL | < 10 nM | –
12 | CON=Cc1cccc(CN2C(=O)N(Cc3cccc(C=NOC)c3)C(Cc3ccccc3)C(O)C(O)C2Cc2ccccc2)c1 (centres unmarked) [10D] | 183 to 185 °C | > 100 µg/mL | 10 to 1000 nM | –
13 | O=C1N(Cc2cccc(O)c2)C(Cc2ccccc2)C(O)C(O)C(Cc2ccccc2)N1Cc1ccc2ccccc2c1 (centres unmarked) [10K] | 137 to 138 °C | < 10 µg/mL | < 10 nM | –
14 | CONC(=O)c1cccc(CN2C(=O)N(Cc3cccc(C(=O)NOC)c3)C(Cc3ccccc3)C(O)C(O)C2Cc2ccccc2)c1 (centres unmarked) [10R] | 150 to 158 °C | < 10 µg/mL | < 10 nM | –
15 | CONC(=O)c1ccc(CN2C(=O)N(Cc3ccc(C(=O)NOC)cc3)C(Cc3ccccc3)C(O)C(O)C2Cc2ccccc2)cc1 (centres unmarked) [10S] | 186 to 189 °C | < 10 µg/mL | < 10 nM | –
16 | O=C1N(Cc2ccc(CO)cc2)C(Cc2ccccc2)C(O)C(O)C(Cc2ccccc2)N1Cc1cccc(O)c1 (centres unmarked) [10o] | 141 to 144 °C | < 10 µg/mL | < 10 nM | –
17 | N=C(N)c1cccc(CN2C(=O)N(Cc3cccc(C(=N)N)c3)C(Cc3ccccc3)C(O)C(O)C2Cc2ccccc2)c1 (centres unmarked) [11A] | 224 to 226 °C | > 100 µg/mL | 10 to 1000 nM | –
18 | CNC(=O)c1cccc(CN2C(=O)N(Cc3cccc(C(=O)OC)c3)C(Cc3ccccc3)C(O)C(O)C2Cc2ccccc2)c1 (centres unmarked) [11G] | 158 to 161 °C | < 10 µg/mL | < 10 nM | –
19 | O=C1N(Cc2ccccc2)C(Cc2ccccc2)C(O)C(O)C(Cc2ccccc2)N1Cc1cccc(O)c1 (centres unmarked) [11I] | 189 to 193 °C | < 10 µg/mL | < 10 nM | –

Row | SMILES | melting point | IC90 (HIV-1 (RF) in MT-2 cells; [2]) | Ki [1, 3] | other results
20 | CNC(=O)c1cccc(CN2C(=O)N(Cc3cccc(CO)c3)C(Cc3ccccc3)C(O)C(O)C2Cc2ccccc2)c1 (centres unmarked) [11M] | 107 to 109 °C | < 10 µg/mL | < 10 nM | –
21 | Nc1cccc(CN2C(=O)N(Cc3cccc(O)c3)C(Cc3ccccc3)C(O)C(O)C2Cc2ccccc2)c1 (centres unmarked) [11Q] | 116 to 120 °C | < 10 µg/mL | < 10 nM | –
22 | Cc1ccc(CN2C(=O)N(Cc3ccc(CO)cc3)C(Cc3ccccc3)C(O)C(O)C2Cc2ccccc2)cc1 (centres unmarked) [15EI] | 174 to 175 °C | – | – | Ki ([1]; read-out: HPLC K1, Table 2d, HIV protease inhibition, HPLC method): < 10 nM
23 | CNC(=O)Nc1cccc(CN2C(=O)N(Cc3cccc(NC(=O)NC)c3)C(Cc3ccccc3)C(O)C(O)C2Cc2ccccc2)c1 (centres unmarked) [15L] | 173.7 °C | – | < 10 nM | –
24 | CC(C)CCCC(C)CCN1C(=O)N(CCC(C)CCCC(C)C)C(Cc2ccccc2)C(O)C(O)C1Cc1ccccc1 (centres unmarked) [Example 1P] | 80 to 82 °C | – | – | –
25 | O=C1N(Cc2ccccn2)C(Cc2ccccc2)C(O)C(O)C(Cc2ccccc2)N1Cc1ccccn1 (centres unmarked) [Example 3M] | 151 to 153 °C | – | – | IC90 (HIV-1 (RF) in MT-2 cells; [4]): 10 to 100 µg/mL (≈ 19.7 to 197 µM)
26 | O=C1N(Cc2cccc3ccccc23)C(Cc2ccccc2)C(O)C(O)C(Cc2ccccc2)N1Cc1cccc2ccccc12 (centres unmarked) [Example 3T] | 231 to 233 °C | – | – | IC90 (HIV-1 (RF) in MT-2 cells; [4]): > 100 µg/mL
27 | CC(=NO)c1cccc(CN2C(=O)N(Cc3cccc(C(C)=NO)c3)C(Cc3ccccc3)C(O)C(O)C2Cc2ccccc2)c1 (centres unmarked) [Example 9Q] | 200 to 202 °C | < 10 µg/mL | – | –
28 | O=C1N(Cc2cccc(-c3cc[nH]n3)c2)C(Cc2ccccc2)C(O)C(O)C(Cc2ccccc2)N1Cc1cccc(-c2cc[nH]n2)c1 (centres unmarked) [Example 15YL] | 208 to 210 °C | – | – | IC90 (HIV-1 (RF) in MT-2 cells; Human immunodeficiency virus 1, MT2, 48 h, Table 2d, HIV RNA assay, read-out: IC90): < 10 µg/mL
29 | CCCCCC1C(O)C(O)C(CCCCC)N(Cc2ccccc2)C(=O)N1Cc1ccccc1 (centres unmarked) [Example 16AH] | 94 to 97 °C | – | – | Ki ([1]; read-out: K4 HPLC, Table 2e): 10 to 1000 nM
30 | CCCCCCC1C(O)C(O)C(CCCCCC)N(Cc2ccccc2)C(=O)N1Cc1ccccc1 (centres unmarked) [Example 16AI] | 79 to 82 °C | – | – | Ki ([1]; read-out: K4 HPLC, Table 2e): 10 to 1000 nM
31 | CC1C(O)C(O)C(C)N(Cc2ccc3ccccc3c2)C(=O)N1Cc1ccc2ccccc2c1 (centres unmarked) [Example 16H] | 236 to 238 °C | – | – | Ki ([1]; read-out: K4 HPLC, Table 2e): > 1000 nM
32 | COc1cccc(CN2C(=S)N(Cc3cccc(OC)c3)C(Cc3ccccc3)C(O)C(O)C2Cc2ccccc2)c1 (centres unmarked) [Example 27G] | – | – | – | IC90 (HIV-1 (RF) in MT-2 cells; Table 2q): +++ (+++=<10 μg/mL); Ki ([1]; Table 2q, read-out: HPLC Ki): < 10 nM
33 | N#Cc1cccc(CN2C(=S)N(Cc3ccc(CO)cc3)C(Cc3ccccc3)C(O)C(O)C2Cc2ccccc2)c1 (centres unmarked) [Example 27H] | – | – | – | IC90 (HIV-1 (RF) in MT-2 cells; Table 2q): +++ (+++=<10 μg/mL); Ki ([1]; Table 2q, read-out: HPLC Ki): < 10 nM
34 | NC(=NO)c1cccc(CN2C(=S)N(Cc3ccc(CO)cc3)C(Cc3ccccc3)C(O)C(O)C2Cc2ccccc2)c1 (centres unmarked) [Example 27I] | – | – | – | IC90 (HIV-1 (RF) in MT-2 cells; Table 2q): +++ (+++=<10 μg/mL); Ki ([1]; Table 2q, read-out: HPLC Ki): < 10 nM
35 | Oc1cccc(CN2C(=S)N(Cc3cccc(O)c3)C(Cc3ccccc3)C(O)C(O)C2Cc2ccccc2)c1 (centres unmarked) [Example 27J] | – | – | – | IC90 (HIV-1 (RF) in MT-2 cells; Table 2q): +++ (+++=<10 μg/mL); Ki ([1]; Table 2q, read-out: HPLC Ki): < 10 nM
36 | N#Cc1cccc(CN2C(=S)N(Cc3cccc(C#N)c3)C(Cc3ccccc3)C(O)C(O)C2Cc2ccccc2)c1 (centres unmarked) [Example 27K] | – | – | – | IC90 (HIV-1 (RF) in MT-2 cells; Table 2q): +++ (+++=<10 μg/mL); Ki ([1]; Table 2q, read-out: HPLC Ki): < 10 nM
37 | NC(=NO)c1cccc(CN2C(=S)N(Cc3cccc(C(N)=NO)c3)[C@H](Cc3ccccc3)[C@H](O)[C@@H](O)[C@H]2Cc2ccccc2)c1 [Example 27L] | – | – | – | IC90 (HIV-1 (RF) in MT-2 cells; Table 2q): +++ (+++=<10 μg/mL); Ki ([1]; Table 2q, read-out: HPLC Ki): < 10 nM
38 | CCCCN1[C@H](Cc2ccccc2)[C@H](O)[C@@H](O)[C@@H](Cc2ccccc2)N(CCCC)P1(=O)Oc1ccccc1 (some centres unmarked) [Example 28D] | – | – | – | IC90 (HIV-1 (RF) in MT-2 cells; Table 2r): +++ (+++=<10 μg/mL); Ki ([1]; Table 2r, read-out: Ki HPLC): 10 to 1000 nM
